Consider one compound from EP3858357A1, “USE OF AZOLE COMPOUNDS TO STIMULATE THE IMMUNE SYSTEM AND AS INHIBITORS FOR S-PLA2GIB” (Diaccurate, priority 2020, dated 2021).

In test [1] the target is sPLA2hGIB (Homo sapiens, UniProt P04054). Briefly: Inhibition of sPLA2hGIB enzymatic activity, [3H]oleate-labelled E. coli membranes (method of Rouault et al., 2006). The format is biochemical. The settings on record: sPLA2hGIB (2 pM) pre-incubated with 10, 30, 100, 300 µM; Figure 2A. The text has this:
(§1) • Figure 1: Screening of the inhibition of sPLA2hGIB enzymatic activity by small molecules previously identified by in silico screening. 0% represents non-specific hydrolysis in the absence of sPLA2hGIB, and 100 % represents sPLA2hGIB activity with DMSO (1 %). […] The condition 'no hGIB' (0%) represents the non-specific hydrolysis of phospholipids present in E. coli membranes radio-labeled with [^3H]oleate. […] HA-tagged receptors are in the presence of sPLA2hGIB or sPLA2hGIIF, then in the presence of a specific biotinylated anti-sPLA2 antibody; "acceptor" beads are coupled to an anti-HA antibody (PerkinElmer) and "donor" beads are coupled to Streptavidine (PerkinElmer).
The condition 'no hGIB' (0%) represents the non-specific hydrolysis of phospholipids present in E. coli membranes radio-labeled with [^3H]oleate.

Test [2] concerns the target T1, sPLA2hGX (Homo sapiens, UniProt O15496).
T1 sequence (O15496 43-165): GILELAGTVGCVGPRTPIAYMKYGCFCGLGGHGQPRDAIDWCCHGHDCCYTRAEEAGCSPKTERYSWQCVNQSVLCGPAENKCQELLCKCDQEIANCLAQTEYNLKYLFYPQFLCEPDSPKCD
Nature of the test: Inhibition of sPLA2hGX enzymatic activity (method of Rouault et al., 2006). Type of test: biochemical. The settings on record: 3-300 µM tested; Figure 2B.

Test [3] addresses T2, sPLA2hGIIA (Homo sapiens, UniProt P14555).
T2 sequence (P14555 21-144): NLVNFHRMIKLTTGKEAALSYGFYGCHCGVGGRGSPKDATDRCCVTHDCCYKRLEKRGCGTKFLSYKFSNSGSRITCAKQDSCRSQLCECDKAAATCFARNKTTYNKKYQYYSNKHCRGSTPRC
Briefly: Inhibition of sPLA2hGIIA enzymatic activity (method of Rouault et al., 2006). The format is biochemical. The settings on record: 3-300 µM tested; Figure 2B.

For test [4], the target named is sPLA2hGV (Homo sapiens, UniProt P39877). Briefly: Inhibition of sPLA2hGV enzymatic activity (method of Rouault et al., 2006). The format is biochemical. The following applies: 3-300 µM tested; Figure 2B.
Test [5] addresses binding between mPLA2R1 receptor and sPLA2hGIB (Homo sapiens, UniProt P04054). Briefly: AlphaLISA-based competition test of sPLA2hGIB binding to soluble HA-tagged mPLA2R1. The following applies: decrease of binding between mPLA2R1 and sPLA2hGIB; Figure 3B.
From the text: as §1
The inventors have developed and used an AlphaLISA®-based test (Figure 3A) capable of detecting binding between the soluble form of mPLA2R1 (which includes the whole extracellular part), and sPLA2hGIB. […]
HA-tagged receptors are in the presence of sPLA2 of interest, then in the presence of a specific biotinylated anti-sPLA2 antibody; "acceptor" beads are coupled to an anti-HA antibody (PerkinElmer) and "donor" beads are coupled to Streptavidine (PerkinElmer). The binding of a HA-tagged receptor and a sPLA2 of interest in solution, results in a proximity of donor and acceptor beads, allowing for energy transfer and the production of a light signal, which is then measured.

The structures appear in SMILES notation.

sPLA2hGIB, sequence (P04054 23-148): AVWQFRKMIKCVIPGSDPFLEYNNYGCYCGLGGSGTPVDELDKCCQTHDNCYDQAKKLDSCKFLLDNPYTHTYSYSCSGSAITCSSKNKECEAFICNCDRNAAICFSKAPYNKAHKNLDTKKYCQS
binding between mPLA2R1 receptor and sPLA2hGIB, sequence (P04054 23-148): as above
sPLA2hGV, sequence (P39877 21-138): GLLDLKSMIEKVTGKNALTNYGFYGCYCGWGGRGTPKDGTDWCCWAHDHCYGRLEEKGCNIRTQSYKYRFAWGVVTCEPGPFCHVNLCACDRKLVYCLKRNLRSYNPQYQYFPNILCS

Turning to `CC(C)N1CCN(c2ccc(OCC3COC(Cn4cncn4)(c4ccc(Cl)cc4Cl)O3)cc2)CC1` [Terconazole, 1-{[(2S,4S)-2-(2,4-dichlorophenyl)-4-{[p-(4-isopropyl-1-piperazinyl)phenoxy]methyl}-1,3-dioxolan-2-yl]methyl}-1H-1,2,4-azole], the IC50 – broadly, the concentration that gives 50% inhibition – in test [1] is 100 to 150 µM; in test [2], ~150 µM; in test [3], > 300 µM; in test [4] it was > 300 µM; in test [5] it was ~100 µM.
